{"source": "patent US9586914B2", "about": "“Modulators of C3a receptors” (THE UNIVERSITY OF QUEENSLAND, priority 2011, dated 2017)", "key": {"[1]": {"system": "human kidney tubule cells", "assay": "ELISA of cytokines from human kidney tubule cells", "type": "cell-based", "conditions": "for IL-8: 0 μM gives 1.8 ± 0.3; for IL-6: 0 μM gives 2.4 ± 0.4; for TNF: 0 μM gives 10.1 ± 2; for GMCSF (pg/ml/ml): 0 μM gives 71.3 ± 23; for Fibronectin: 0 μM gives 75.2 ± 29", "experimental": "Human renal cortical tissue (10 g) was minced finely, washed several times and agitated for 20 minutes at 37° C. in a Krebs-Henseleit buffer (KHB) containing collagenase type II (1 mg/mL), Cold KHB was added and the solution passed through a 297 μm sieve (50 Mesh, Sigma). After washing three times the tubular fragments were re-suspended in 45% percoll-KHB and centrifuged at 20000×g. A high density band, previously shown to be tubule fragments, was removed and cultured in a serum free, hormonally defined DMEM/F12 media (containing 10 ng/mL epidermal growth factor, 5 μg/mL insulin, […] transferrin, 50 nM hydrocortisone, […] prostaglandin E1, 50 nM selenium and 5 pM triiodothyronine). All experiments were performed on confluent passage 2 HTEC made quiescent by two washes followed by incubation for 24 h in serum and growth factor free DMEM/F12 media. These cells were incubated with C3aR agonists and antagonists.\nSupernatant and lysates from cell culture treatment samples were collected and stored separately at −20° C. until further use. Human IL1B, IL8, IL6 and TNF levels were determined using the respective OptEIA™ ELISA kit (BD Biosciences, San Diego, USA) according to the manufacturer's instructions. The readings were recorded on a FLUOstar Optima (BMG LabTechnologies, Offenburg, Germany)."}, "[2]": {"system": "IL1B, IL8, CCL3, EGR1, FOSB and TNF gene expression in HMDMs", "assay": "Regulation of inflammatory genes in HMDM (qRT-PCR)", "type": "cell-based, human", "conditions": "HMDMs, 300 nM, 30 minutes; qRT-PCR, fold change from control", "excerpt": "Human monocyte-derived macrophages (HMDMS) were isolated from buffy coat of anonymous donors provided by the Australian Red Cross Blood Service at Kelvin Grove, Queensland, Australia. White blood cells were separated from other blood components into different layers using Ficoll-Paque Plus Density Centrifugation (GE Healthcare Bio-Science, Uppsala, Sweden) according to manufacturer's instruction. The isolated white blood cells were repeatedly washed with ice-cold water to remove contaminating erythrocytes. CD14^+ monocytes were positively selected from white blood cells using CD14^+ Macs Magnetic Beads (Miltenyi biotech, Auburn, Calif., USA) after successive magnetic sorting and washings. CD14^+ monocytes (1.5×10^6 cells/mL) were seeded in 10 mL of IMDM supplemented with 10% fetal calf serum (FBS), 10 U/mL streptomycin, 10 U/mL penicillin and 2 mmol L-glutamine (Invitrogen). To generate HMDMS, […] of recombinant human macrophage colony stimulating factor (M-CSF) (Peprotech Inc., rocky Hill, N.J., USA) was added for differentiation. HMDMS were maintained at 37° C. in a humidified incubator with 5% CO2 for a week to fully differentiate. At day 7, the adhered HMDMS were harvested by gentle scraping in saline solution.\nHMDMs (2×10^6) in 2 mL of IMDM medium were transferred into each well on a 6-well plate. The cells were left to incubate for 6 h to allow adhesion before being serum starved in serum free IMDM to reduce background noise of the C3a treatment. In the time response experiment, cells were treated with 10 nM of C3a or agonist (compound 8 or 64) for 0.5, 1, 2 or 6 h. In concentration response experiments, cells were treated with 1, 10, 100 or 300 nM for 1 h. To prepare the samples for the microarray experiments, cells were treated with agonist at 100-300 nM for 30 min or 1 h in the absence or presence of the antagonist (e.g. SB-290157 or antagonists). […] Cells were washed with saline solution at the end of each treatment before the RNA extraction step.\nTotal RNA was extracted from cells using RNeasy Mini Plus kit (Qiagen, USA) according to the manufacturer's instructions. The concentration of the RNA was determined by measuring absorbance at λ=260/280 […] on a nanodrop spectrophotometer (Thermo Scientific), according to the manufacturer's instructions.\nTotal RNA (2-5 μg) was reverse transcribed with Superscript III (Invitrogen, USA) using random oligo dT primer. Reagents were incubated (50 min, 50° C.; then 10 min, 70° C.) in thermal cyclers (Bio-Rad) to complete the reaction, cDNA samples were stored at −20° C. until further use. All RNA work was performed on ice (4° C.) to prevent degradation of the RNA samples.\ncDNA (0.5 μg) samples were prepared with 5 μL SYBR® Green PCR master mix (Applied Biosystems™, CA, USA), 2 μL relevant primers (2 μM) and 1 μL dH2O before being analysed using an ABI 7900HT Fast Real-Time PCR System (Applied Biosystems™, CA, USA) according to the manufacturer's specifications. Fluorescence data was collected during the extension phase (60° C.). The concentration response data for each sample was then normalised against the same data for control housekeeping gene, (18S) to quantify and generate gene expression data. All samples were done in at least duplicate. Primers were designed using the Primer-BLAST software (National Center for Biotechnology Information, USA). Primers contained, amplicons that cross exon-exon boundaries to prevent amplification of genomic DNA. […]"}}, "note": "“Also recorded” adds a separate entry of the source."}
{"smiles": "CC(C)C[C@H](NC(=O)c1c[nH]c2ccccc12)c1nc(C(=O)N[C@@H](CCCNC(=N)N)C(=O)O)co1", "note": "[Compound 8, 3-Indole Carboxylic Acid-Leucine-Oxazole-Arginine-OH]", "values": [{"measurement": "IL-8", "setting": "[1]; compound 8 at 1 μM", "value": "1.9 ± 0.4", "unit": "ng/mL"}, {"measurement": "IL-6", "setting": "[1]; compound 8 at 1 μM", "value": "2.5 ± 0.1", "unit": "ng/mL"}, {"measurement": "TNF", "setting": "[1]; compound 8 at 1 μM", "value": "9.9 ± 1", "unit": "pg/mL"}, {"measurement": "GMCSF (pg/ml/ml)", "setting": "[1]; compound 8 at 1 μM", "value": "74.6 ± 7.1", "unit": "pg/ml/ml"}, {"measurement": "Fibronectin", "setting": "[1]; compound 8 at 1 μM", "value": "89.6 ± 11", "unit": "ng/mL"}, {"measurement": "IL-8", "setting": "[1]; compound 8 at 2.5 μM", "value": "5.7 ± 2", "unit": "ng/mL"}, {"measurement": "IL-6", "setting": "[1]; compound 8 at 2.5 μM", "value": "8.2 ± 0.6", "unit": "ng/mL"}, {"measurement": "TNF", "setting": "[1]; compound 8 at 2.5 μM", "value": "12.3 ± 1", "unit": "pg/mL"}, {"measurement": "GMCSF (pg/ml/ml)", "setting": "[1]; compound 8 at 2.5 μM", "value": "142.8 ± 10.9", "unit": "pg/ml/ml"}, {"measurement": "Fibronectin", "setting": "[1]; compound 8 at 2.5 μM", "value": "89.0 ± 5", "unit": "ng/mL"}, {"measurement": "IL-8", "setting": "[1]; compound 8 at 5 μM", "value": "31.5 ± 5", "unit": "ng/mL"}, {"measurement": "IL-6", "setting": "[1]; compound 8 at 5 μM", "value": "30.9 ± 2.5", "unit": "ng/mL"}, {"measurement": "TNF", "setting": "[1]; compound 8 at 5 μM", "value": "76.6 ± 13", "unit": "pg/mL"}, {"measurement": "GMCSF (pg/ml/ml)", "setting": "[1]; compound 8 at 5 μM", "value": "738.0 ± 127.6", "unit": "pg/ml/ml"}, {"measurement": "Fibronectin", "setting": "[1]; compound 8 at 5 μM", "value": "149.5 ± 21", "unit": "ng/mL"}, {"measurement": "IL-8", "setting": "[1]; compound 8 at 10 μM", "value": "30.4 ± 8", "unit": "ng/mL"}, {"measurement": "IL-6", "setting": "[1]; compound 8 at 10 μM", "value": "33.5 ± 5", "unit": "ng/mL"}, {"measurement": "TNF", "setting": "[1]; compound 8 at 10 μM", "value": "117.8 ± 53", "unit": "pg/mL"}, {"measurement": "GMCSF (pg/ml/ml)", "setting": "[1]; compound 8 at 10 μM", "value": "1056 ± 147.8", "unit": "pg/ml/ml"}, {"measurement": "Fibronectin", "setting": "[1]; compound 8 at 10 μM", "value": "172.9 ± 20", "unit": "ng/mL"}, {"measurement": "IL-8", "setting": "[1]; compound 8 at 20 μM", "value": "76.4 ± 18", "unit": "ng/mL"}, {"measurement": "IL-6", "setting": "[1]; compound 8 at 20 μM", "value": "55.8 ± 12", "unit": "ng/mL"}, {"measurement": "TNF", "setting": "[1]; compound 8 at 20 μM", "value": "277.9 ± 28", "unit": "pg/mL"}, {"measurement": "GMCSF (pg/ml/ml)", "setting": "[1]; compound 8 at 20 μM", "value": "2853 ± 399", "unit": "pg/ml/ml"}, {"measurement": "Fibronectin", "setting": "[1]; compound 8 at 20 μM", "value": "200.9 ± 28", "unit": "ng/mL"}, {"measurement": "Induction at 40 μM, Fibronectin", "setting": "[1]; compound 8 at 40 μM vs 0 μM", "value": "2-fold"}, {"measurement": "Induction at 40 μM, GMCSF", "setting": "[1]; compound 8 at 40 μM vs 0 μM", "value": "80-fold"}, {"measurement": "Induction at 40 μM, IL-6", "setting": "[1]; compound 8 at 40 μM vs 0 μM", "value": "40-fold"}, {"measurement": "Induction at 40 μM, IL-8", "setting": "[1]; compound 8 at 40 μM vs 0 μM", "value": "75-fold"}, {"measurement": "Induction at 40 μM, TNF", "setting": "[1]; compound 8 at 40 μM vs 0 μM", "value": "75-fold"}, {"measurement": "IL-8", "setting": "[1]; compound 8 at 40 μM", "value": "135.0 ± 9", "unit": "ng/mL"}, {"measurement": "IL-6", "setting": "[1]; compound 8 at 40 μM", "value": "96.9 ± 29", "unit": "ng/mL"}, {"measurement": "TNF", "setting": "[1]; compound 8 at 40 μM", "value": "757.8 ± 13", "unit": "pg/mL"}, {"measurement": "GMCSF (pg/ml/ml)", "setting": "[1]; compound 8 at 40 μM", "value": "5790 ± 726", "unit": "pg/ml/ml"}, {"measurement": "Fibronectin", "setting": "[1]; compound 8 at 40 μM", "value": "148.0 ± 32", "unit": "ng/mL"}, {"measurement": "Secretion of inflammatory cytokines", "setting": "[1]; primary human kidney cells", "value": "induces secretion of inflammatory cytokines"}, {"measurement": "Induction of gene expression of IL1B, IL8, CCL3, EGR1, FOSB and TNF", "setting": "[2]", "value": "significantly induce gene expression; also recorded: induced expression of inflammatory genes"}]}
